Where two headings read alike, the source gives them in different places.
Tests used:
[1] = SPR binding of NVA1309 to immobilized P4-derived peptides, RU400 as % of peptide P4; settings: for % BINDING (RU400) 0.5 mM: NVA1309 0.5 mM; for % BINDING (RU400) 1 mM: NVA1309 1 mM; for % BINDING (RU400) 2 mM: NVA1309 2 mM; for % BINDING (RU400) mean: mean of 0.5, 1 and 2 mM NVA1309; for NVA1309 binding to the peptide, in words: compared with peptide P4
Experimental: (§1) This peptide was covalently coupled via the carboxy-terminal cysteine to the surface (FC2) of a Biacore CM5 optical sensor chip as described in Example 4 following the Biacore thiol coupling procedure. Compound NVA1309 was injected as analyte at increasing concentrations and the binding reaction was monitored by generation of real time sensorgrams, presented as subtracted curves from the blank FC1 dextran reference surface (FIGS. 14A & 14B).
Sensorgram running conditions were: • Compound stock solution: 50 mM, Dimethyl sulfoxide (DMSO) • Compound working dilution: 0.5-2 mM • Running buffer: HBS-P • Flow rate: 30 μl/min
This peptide was covalently coupled via the carboxy-terminal cysteine to the surface (FC3) of a new Biacore CM5 optical sensor chip using the Biacore thiol coupling procedure. Peptide P4 was immobilized on FC2 as a positive reference control, flow cell FC1 was left blank as negative background binding reference. Compound NVA1309 was injected as analyte at increasing concentrations and the binding reaction was monitored by generation of real time sensorgrams as described in the previous examples and presented as subtracted curves from the blank FC1 dextran reference surface.
A series of three concentration SPR binding experiments were carried out with peptides derived from the peptide P4 sequence (SEQ ID No. 7). These peptides were designed in order to determine the significance of single peptide 4-contained (P4) amino acid residues in binding compound NVA1309. The following peptides were prepared:
Synthetic peptides were covalently coupled to optical sensor chips via the terminal cysteines following the Biacore thiol coupling procedure and SPR binding experiments were run exactly under the same conditions as described in the previous examples. Relative binding strengths of the single peptides were read from three concentration RU400 values and calculated as percentage binding of the peptide P4 reference (P4: RU400=100%). […]

[2] = biological target: T1, truncated recombinant α2δ-1 protein, Construct 2 (SEQ ID No. 3) (Homo sapiens, UniProt P54289); test: SPR binding of analyte to immobilized truncated α2δ-1 construct 2; settings: RU400, subtracted from human IgG reference; NVA1309 at increasing concentrations, pregabalin at 500 μM
T1 construct: His tag; GST; made in house; host or cells: CHO cells (transient expression)
T1 sequence (P54289 with tags, fused parts or gaps): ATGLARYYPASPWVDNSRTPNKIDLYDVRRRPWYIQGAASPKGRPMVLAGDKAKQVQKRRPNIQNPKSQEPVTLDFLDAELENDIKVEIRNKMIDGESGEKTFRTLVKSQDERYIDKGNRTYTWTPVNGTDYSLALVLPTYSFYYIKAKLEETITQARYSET
Experimental: Binding experiments were carried out using Surface Plasmon Resonance (SPR) technology in a Biacore instrument. Recombinant construct 1 and construct 2 were immobilized on the surface of two different flow cells (FC2 and FC3, respectively) of a Biacore CM5 optical sensor chip by covalent amine coupling chemistry, using the Biacore amine coupling kit and following the Biacore amine coupling protocol. Human IgG was immobilized to the reference flow cell FC1 as intra-assay background binding control.

[3] = biological target: T2, α2δ-1 recombinant peptide (SEQ ID No. 5) comprising the VGCC_α2 domain (Homo sapiens, UniProt P54289); test: SPR binding to immobilized α2δ-1 recombinant peptide; settings: RU400, subtracted from BSA reference; 0.5-2 mM
T2 construct: purchased CUSABIO CSB-YP004407HU; host or cells: yeast
T2 sequence (P54289 528-668): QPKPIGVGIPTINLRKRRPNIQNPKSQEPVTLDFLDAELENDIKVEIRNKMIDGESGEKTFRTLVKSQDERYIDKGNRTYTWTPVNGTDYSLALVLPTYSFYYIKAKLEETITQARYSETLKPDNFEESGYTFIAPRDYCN
Description: The α2δ-1 recombinant peptide comprising the VGGC_α2 domain and containing a single cysteine near the carboxy terminus, was immobilized on the surface of a Biacore CM5 optical sensor chip using the Biacore Thiol Coupling Kit following the covalent thiol coupling chemistry. This immobilization process provides a sterically more uniform attachment of the ligand molecules to the sensor chip surface than the randomized amine coupling procedure. Bovine serum albumin (BSA) was immobilized to the reference flow cell FC1 as intra-assay background binding control. Compound NVA1309 was injected as analyte at increasing concentrations and the binding reaction was monitored by generation of real time sensorgrams, presented as subtracted curves from the BSA reference (see […]).
Sensorgram running conditions were: • Compound stock solution: 50 mM, Dimethyl sulfoxide (DMSO) DMSO • Compound working dilution: 0.5-2 mM • Running buffer: HBS-P • Flow rate: 30 μl/min

[4] = biological target: T3, Peptide P3 (SEQ ID No. 6), carboxy terminal region of the VGGC_α2 domain of α2δ-1 (Homo sapiens, UniProt P54289); test: SPR binding to immobilized synthetic peptide P3; settings: RU400, subtracted from blank dextran reference; 0.5-2 mM
T3 construct: three glycines and a terminal cysteine (Peptide 3); made in house; host or cells: chemical synthesis
T3 sequence (P54289 with tags, fused parts or gaps limits assumed): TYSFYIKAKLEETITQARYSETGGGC
Description: A synthetic peptide was constructed, representing the carboxy terminal of the VGGC_α2 domain of α2δ-1, carboxy-terminally fused to a flexible spacer consisting of three glycines and a terminal cysteine (Peptide 3; SEQ ID No. 6):
as §1, with “using the Biacore Thiol Coupling Kit” for “as described in Example 4”, “procedure. This strategy allows for uniform surface presentation of the immobilized peptide molecules and provides freedom to adopt a steric conformation determined by the amino acid sequence of the peptide.” for “procedure.”, “(see FIG. 13A).” for “(FIGS. 14A & 14B).”
Sensorgram running conditions were: • Compound stock solution: 50 mM, Dimethyl sulfoxide (DMSO) DMSO • Compound working dilution: 0.5-2 mM • Running buffer: HBS-P (Biacore) • Flow rate: 30 μl/min

[5] = biological target: T4, α2δ-1 recombinant peptide (SEQ ID No. 5) containing the VGCC_α2 domain (Homo sapiens, UniProt P54289); settings: Langmuir 1:1 fit, single concentration data
T4 sequence (P54289 528-668): as the sequence (P54289 528-668) above
Experimental: (§2) The equilibrium dissociation constant KD=kd/ka was calculated and provides a single concentration estimate of the compound target binding affinity.

[6] = biological target: human voltage-gated calcium channel subunit α2δ-1 (Homo sapiens, UniProt P54289)
Chain of human voltage-gated calcium channel subunit α2δ-1 (P54289 25-1103): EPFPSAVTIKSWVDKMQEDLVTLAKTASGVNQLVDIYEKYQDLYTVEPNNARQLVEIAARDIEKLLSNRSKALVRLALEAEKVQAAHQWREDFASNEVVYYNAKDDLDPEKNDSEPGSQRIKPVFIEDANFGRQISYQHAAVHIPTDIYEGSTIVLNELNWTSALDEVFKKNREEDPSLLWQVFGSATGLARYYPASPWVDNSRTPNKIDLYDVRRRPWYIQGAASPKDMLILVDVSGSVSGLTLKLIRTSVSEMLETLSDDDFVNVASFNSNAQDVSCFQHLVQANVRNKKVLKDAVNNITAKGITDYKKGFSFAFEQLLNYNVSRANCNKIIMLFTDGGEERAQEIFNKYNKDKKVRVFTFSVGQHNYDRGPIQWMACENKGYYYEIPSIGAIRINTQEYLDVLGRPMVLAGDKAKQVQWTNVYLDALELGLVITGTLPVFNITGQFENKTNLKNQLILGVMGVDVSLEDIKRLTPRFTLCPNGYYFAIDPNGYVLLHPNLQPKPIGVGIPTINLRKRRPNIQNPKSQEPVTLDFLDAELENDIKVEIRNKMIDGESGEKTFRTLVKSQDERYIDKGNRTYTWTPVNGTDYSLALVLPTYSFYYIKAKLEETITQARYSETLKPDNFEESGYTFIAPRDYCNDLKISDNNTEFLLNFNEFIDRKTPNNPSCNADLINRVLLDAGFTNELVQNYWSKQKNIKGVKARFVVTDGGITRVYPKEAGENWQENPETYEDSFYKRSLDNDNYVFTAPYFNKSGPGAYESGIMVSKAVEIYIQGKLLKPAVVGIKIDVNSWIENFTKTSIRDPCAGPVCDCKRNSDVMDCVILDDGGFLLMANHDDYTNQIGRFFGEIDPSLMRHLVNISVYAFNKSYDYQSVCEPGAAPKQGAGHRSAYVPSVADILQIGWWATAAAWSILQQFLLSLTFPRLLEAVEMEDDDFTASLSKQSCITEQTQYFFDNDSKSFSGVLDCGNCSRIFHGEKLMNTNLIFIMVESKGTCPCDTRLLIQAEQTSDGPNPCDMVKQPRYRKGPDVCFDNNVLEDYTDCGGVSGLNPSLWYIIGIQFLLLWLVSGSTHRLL

[7] = biological target: T4, α2δ-1 recombinant peptide (SEQ ID No. 5) containing the VGCC_α2 domain; test: biochemical
Experimental: as §2

[8] = biological target: Peptide 1 (P1; SEQ ID No. 4) comprising the gabapentin/pregabalin binding site of α2δ-1 (Homo sapiens, UniProt P54289); test: SPR binding to immobilized synthetic peptide P1; settings: RU400, subtracted from blank dextran reference
Chain of Peptide 1 (P1; SEQ ID No. 4) comprising the gabapentin/pregabalin binding site of α2δ-1 (P54289 with tags, fused parts or gaps limits assumed): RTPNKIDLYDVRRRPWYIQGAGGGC
Experimental: Thiol coupling allows for uniform surface presentation of the immobilized peptide molecules and provides freedom to adopt a steric conformation that is determined by the amino acid sequence of the peptide.
Sensorgram running conditions were: • Compound stock solution: 50 mM, DMSO • Compound working stock dilution: 0.5-2 mM • Running buffer: HBS-P • Flow rate: 30 μl/min

[9] = biological target: truncated recombinant α2δ-1 protein, Construct 1 (SEQ ID No. 2) (Homo sapiens, UniProt P54289); test: SPR binding of analyte to immobilized truncated α2δ-1 construct 1; settings: RU400, subtracted from human IgG reference; NVA1309 at increasing concentrations, pregabalin at 500 μM
Chain of truncated recombinant α2δ-1 protein, Construct 1 (SEQ ID No. 2) (P54289 with tags, fused parts or gaps): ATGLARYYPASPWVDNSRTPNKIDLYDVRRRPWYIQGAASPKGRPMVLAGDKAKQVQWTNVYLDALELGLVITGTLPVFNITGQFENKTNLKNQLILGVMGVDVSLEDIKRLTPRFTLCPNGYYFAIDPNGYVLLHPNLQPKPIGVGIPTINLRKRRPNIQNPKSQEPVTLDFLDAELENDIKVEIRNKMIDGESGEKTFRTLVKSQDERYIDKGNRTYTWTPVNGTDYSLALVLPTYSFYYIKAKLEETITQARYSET

[10] = biological target: T5, α2δ-1 (RRR mutated to RRA) (Mus musculus, UniProt O08532, R241A); settings: knock-in mutant mouse; cited from earlier work
T5 construct: host or cells: knock-in mutant mouse (in vivo)
T5 sequence (O08532 25-1103 R241A): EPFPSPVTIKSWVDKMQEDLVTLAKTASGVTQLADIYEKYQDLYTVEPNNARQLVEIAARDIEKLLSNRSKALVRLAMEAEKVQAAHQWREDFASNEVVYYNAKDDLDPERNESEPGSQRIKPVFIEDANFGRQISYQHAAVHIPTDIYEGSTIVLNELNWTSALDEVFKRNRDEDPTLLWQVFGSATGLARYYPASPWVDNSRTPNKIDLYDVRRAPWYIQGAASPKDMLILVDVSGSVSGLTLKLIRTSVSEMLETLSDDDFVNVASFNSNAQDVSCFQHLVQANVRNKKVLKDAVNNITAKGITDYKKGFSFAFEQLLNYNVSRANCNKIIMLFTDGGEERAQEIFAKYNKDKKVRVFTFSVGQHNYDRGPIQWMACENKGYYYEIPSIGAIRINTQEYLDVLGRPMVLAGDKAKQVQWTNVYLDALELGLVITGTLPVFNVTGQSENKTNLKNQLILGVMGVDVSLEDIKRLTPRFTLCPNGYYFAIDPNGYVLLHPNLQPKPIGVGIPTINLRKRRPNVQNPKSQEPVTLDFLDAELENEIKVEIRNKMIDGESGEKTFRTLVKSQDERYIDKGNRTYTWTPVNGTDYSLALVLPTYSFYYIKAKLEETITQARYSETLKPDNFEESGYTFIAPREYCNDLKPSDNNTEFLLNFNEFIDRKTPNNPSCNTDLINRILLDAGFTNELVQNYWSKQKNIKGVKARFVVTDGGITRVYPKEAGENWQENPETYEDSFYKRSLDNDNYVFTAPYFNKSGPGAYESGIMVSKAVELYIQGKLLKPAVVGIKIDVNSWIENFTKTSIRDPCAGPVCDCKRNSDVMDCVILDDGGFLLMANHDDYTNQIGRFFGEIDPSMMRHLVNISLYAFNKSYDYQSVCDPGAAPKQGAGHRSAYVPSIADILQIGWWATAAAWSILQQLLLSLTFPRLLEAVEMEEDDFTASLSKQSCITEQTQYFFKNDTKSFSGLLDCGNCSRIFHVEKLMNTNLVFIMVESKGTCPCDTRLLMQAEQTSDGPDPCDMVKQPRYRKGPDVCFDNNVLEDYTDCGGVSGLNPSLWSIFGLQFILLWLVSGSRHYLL
T5 sequence (O08532 958-1103 partner limits assumed): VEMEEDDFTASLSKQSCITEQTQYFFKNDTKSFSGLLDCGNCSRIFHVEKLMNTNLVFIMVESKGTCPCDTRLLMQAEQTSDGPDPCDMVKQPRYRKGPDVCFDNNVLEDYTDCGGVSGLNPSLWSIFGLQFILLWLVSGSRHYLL

α2δ-1 = settings: partial sciatic ligation neuropathy, α2δ-1−/− mice; cited from earlier work
[11] = P4 RU400=100%, P4 scanning (Example 6)

| Molecule | % BINDING (RU400) 0.5 mM ([1]; P4=100%, Example 7) | % BINDING (RU400) 1 mM ([1]; P4=100%, Example 7) | % BINDING (RU400) 2 mM ([1]; P4=100%, Example 7) | % BINDING (RU400) mean ([1]; P4=100%, Example 7) | % BINDING (RU400) 0.5 mM [1, 11] | % BINDING (RU400) 1 mM [1, 11] | % BINDING (RU400) 2 mM [1, 11] | % BINDING (RU400) mean ([1]; P4=100%, Example 6) | also measured |
| --- | --- | --- | --- | --- | --- | --- | --- | --- | --- |
| IKAKGGGC (Peptide P15, P4 analogue containing only the amino-terminal part of P4 + GGGC anchor) | 19% | 25% | 26% | 23% |  |  |  |  |  |
| IKAALEETITQAGGGC (Peptide P14, P4 analogue with Lysine in position 4 (K) substituted by Alanine (A) + GGGC anchor) [P4 analogue, K4 A-substituted + GGGC anchor] | 0% | 11% | 6% | 6% |  |  |  |  |  |
| IAAKLEETITQAGGGC (Peptide P13, P4 analogue with Lysine in position 2 (K) substituted by Alanine (A) + GGGC anchor) [P4 analogue, K2 A-substituted + GGGC anchor] | 133% | 88% | 90% | 104% |  |  |  |  |  |
| LRVRIDDSLSNVGGGC (Peptide P9, P4 analogue - all aa substituted by most similar ones + GGGC anchor) |  |  |  |  | 1% | 1% | 2% | 1.3% |  |
| AQTITEELKAKIGGGC (Peptide P8, Inverse peptide P4 + GGGC anchor) |  |  |  |  | 3% | 2% | 2% | 2.3% | NVA1309 binding to the peptide, in words [1]: lack of binding |
| IKAKLEETITQAGGGC (Peptide P4, carboxy-terminal VGGC_a2 region (II) + GGGC anchor) [carboxy-terminal VGGC_α2 region (II) + GGGC anchor, positive control] | 100% | 100% | 100% | 100% | 100% | 100% | 100% | 100% |  |
| IKAKLEEAIAQAGGGC (Peptide P12, P4 analogue - polar side chains A-substituted + GGGC anchor) |  |  |  |  | 14% | 15% | 17% | 15.3% |  |
| IAAALEETITQAGGGC (Peptide P10, P4 analogue - positively charged side chains A-substituted + GGGC anchor) |  |  |  |  | 4% | 4% | 4% | 4% |  |
| CCC1=C[C@@H]2[C@H](C1)C[C@]2(CN)Cc1nnn[nH]1 [NVA1309, [(1R,5S,6S)-3-Ethyl-6-(1H-tetrazol-5-ylmethyl)-6-bicyclo[3.2.0]hept-3-enyl]methanamine] |  |  |  |  |  |  |  |  | SPR binding to immobilized construct 2 [2]: concentration-dependent binding; SPR binding to immobilized α2δ-1 recombinant peptide [3]: concentration-dependent binding; SPR binding to immobilized peptide P3 [4]: concentration dependent binding; kd [5]: 0.00061 s⁻¹; IC50 ([6]; recombinant membranes over-expressing the human α2δ-1 subunit (PCT/EP2014/077937); read-out: IC50 of binding; cited from earlier work): 2.1 nM; Kd [7]: 33.8 nM; kon ([7]; read-out: ka): 18000 M⁻¹ s⁻¹; SPR binding to immobilized peptide P1 [8]: concentration-dependent binding; SPR binding to immobilized construct 1 [9]: concentration-dependent binding |
| IKAKLAATITQAGGGC (Peptide P11, P4 analogue - negatively charged side chains A-substituted + GGGC anchor) |  |  |  |  | 23% | 22% | 25% | 23.3% |  |
| ETITQARYSETLKPGGGC (Peptide P6, carboxy-terminal VGGC_a2 region (IV) + GGGC anchor) [C-terminal P4 extension + GGGC anchor] |  |  |  |  | 9% | 7% | 9% | 8.3% | NVA1309 binding to the peptide, in words [1]: significant loss of NVA1309 binding capacity |
| CC(C)C[C@H](CN)CC(=O)O [Pregabalin, reference compound] |  |  |  |  |  |  |  |  | SPR binding to immobilized construct 2 [2]: lack of pregabalin binding; IC50 ([6]; read-out: IC50 of binding; recombinant membranes over-expressing the human α2δ-1 subunit (PCT/EP2014/077937); cited from earlier work): 23 nM; alleviating chronic pain resulting from nerve injury [10]: no longer effective; ability to alleviate mechanical hypersensitivity (α2δ-1): lost; SPR binding to immobilized peptide P1 [8]: no positive SPR signal; SPR binding to immobilized construct 1 [9]: lack of pregabalin binding |

Reference: US20220002359A1, “Voltage-Gated Calcium Channel Auxilliary Subunit Alpha 2 Delta and Uses Thereof” (Novassay, S.A., priority 2017, published 2022)
